{
  "source": "ChEMBL document CHEMBL1127528",
  "about": "“Synthesis and carbonic anhydrase inhibitory activity of 4-substituted 2-thiophenesulfonamides” (J Med Chem, 1994)",
  "key": {"[1]": {"test": "Ocular sensitization assay as susceptibility to nucleophilic attack by cysteine", "type": "functional"}, "Carbonic anhydrase 2": {"target": "Carbonic anhydrase 2 (Homo sapiens, UniProt P00918)", "description": "Activity against human carbonic anhydrase II"}},
  "data": [
    {"smiles": "CC(C)CN[C@H]1CCS(=O)(=O)c2sc(S(N)(=O)=O)cc21", "values": [
      {"measurement": "Cysteine reaction", "setting": "[1]", "value": "< 5e-05", "unit": "min⁻¹"}
    ]},
    {"smiles": "CCCCCCC(=O)c1csc(S(N)(=O)=O)c1", "values": [
      {"measurement": "Cysteine reaction", "setting": "[1]", "value": "5e-05", "unit": "min⁻¹"},
      {"measurement": "IC50", "setting": "Carbonic anhydrase 2", "value": 5, "unit": "nM"}
    ]},
    {"smiles": "CC(=O)c1csc(S(N)(=O)=O)c1", "values": [
      {"measurement": "IC50", "setting": "Carbonic anhydrase 2", "value": 16, "unit": "nM"}
    ]},
    {"smiles": "CCCCCCC(O)c1csc(S(N)(=O)=O)c1", "note": "(stereo unspecified)", "values": [
      {"measurement": "Cysteine reaction", "setting": "[1]", "value": "< 5e-05", "unit": "min⁻¹"},
      {"measurement": "IC50", "setting": "Carbonic anhydrase 2", "value": 13, "unit": "nM"}
    ]},
    {"smiles": "CCCCNC(C)c1csc(S(N)(=O)=O)c1", "note": "(stereo unspecified)", "values": [
      {"measurement": "IC50", "setting": "Carbonic anhydrase 2", "value": 590, "unit": "nM"}
    ]},
    {"smiles": "CCCC/C(=N\\O)c1csc(S(N)(=O)=O)c1", "values": [
      {"measurement": "IC50", "setting": "Carbonic anhydrase 2", "value": 15, "unit": "nM"}
    ]},
    {"smiles": "CCCCCC/C(=N\\OC)c1csc(S(N)(=O)=O)c1", "values": [
      {"measurement": "Cysteine reaction", "setting": "[1]", "value": "5e-05", "unit": "min⁻¹"},
      {"measurement": "IC50", "setting": "Carbonic anhydrase 2", "value": 4.7, "unit": "nM"}
    ]},
    {"smiles": "CCCCC(=O)c1csc(S(N)(=O)=O)c1", "values": [
      {"measurement": "IC50", "setting": "Carbonic anhydrase 2", "value": 6.3, "unit": "nM"}
    ]},
    {"smiles": "CCCCC(O[Si](C)(C)C(C)(C)C)c1csc(S(N)(=O)=O)c1", "note": "(stereo unspecified)", "values": [
      {"measurement": "IC50", "setting": "Carbonic anhydrase 2", "value": 200, "unit": "nM"}
    ]},
    {"smiles": "NS(=O)(=O)c1cc(C(=O)c2ccccc2)cs1", "values": [
      {"measurement": "Cysteine reaction", "setting": "[1]", "value": "5e-05", "unit": "min⁻¹"},
      {"measurement": "IC50", "setting": "Carbonic anhydrase 2", "value": 6.8, "unit": "nM"}
    ]},
    {"smiles": "CCCCCCC(N)c1csc(S(N)(=O)=O)c1", "note": "(stereo unspecified)", "values": [
      {"measurement": "IC50", "setting": "Carbonic anhydrase 2", "value": 160, "unit": "nM"}
    ]},
    {"smiles": "CCCCCC/C(=N\\N)c1csc(S(N)(=O)=O)c1", "values": [
      {"measurement": "Cysteine reaction", "setting": "[1]", "value": "5e-05", "unit": "min⁻¹"},
      {"measurement": "IC50", "setting": "Carbonic anhydrase 2", "value": 2, "unit": "nM"}
    ]},
    {"smiles": "CCCCCC/C(=N\\O)c1csc(S(N)(=O)=O)c1", "values": [
      {"measurement": "Cysteine reaction", "setting": "[1]", "value": "5e-05", "unit": "min⁻¹"},
      {"measurement": "IC50", "setting": "Carbonic anhydrase 2", "value": 5.8, "unit": "nM"}
    ]},
    {"smiles": "CC(=O)Nc1nnc(S(N)(=O)=O)s1", "values": [
      {"measurement": "Cysteine reaction", "setting": "[1]", "value": "3.5e-05", "unit": "min⁻¹"}
    ]},
    {"smiles": "CCCCC(N)c1csc(S(N)(=O)=O)c1", "note": "(stereo unspecified)", "values": [
      {"measurement": "IC50", "setting": "Carbonic anhydrase 2", "value": 626, "unit": "nM"}
    ]}
  ]
}
